Source: patent US20210087217A1, “NUCLEOTIDE HEMI-SULFATE SALT FOR THE TREATMENT OF HEPATITIS C VIRUS” (Atea Pharmaceuticals, Inc., priority 2017, published 2021)
Entries after “also recorded” stand apart in the source; their conditions may differ. Counter-ions that a name gives are not always drawn.

What was measured:
[1] = Single ascending dose study of Compound 2 in healthy volunteers (Part A): safety, tolerability, pharmacokinetic; format: in vivo, human; conditions: healthy subjects
Protocol: Compound 2 was tested in a single ascending dose (SAD) study to measure its safety, tolerability, and pharmacokinetic in healthy subjects (Part A). Part A was a randomized, double-blind, placebo-controlled SAD study. Healthy subjects in Part A received a single dose of Compound 2 or placebo in the fasting state. Subjects were confined to the clinic from Day −1 to Day 6.
Dosing in each cohort was staggered such that 2 subjects (1 active:1 placebo) were evaluated for 48 hours after dosing before the remainder of the cohort was dosed. Each cohort received Compound 2 in ascending order. Dosing of sequential cohorts occurred based on review of available safety data (through Day 5) and plasma pharmacokinetic data (through 24 h) of the prior cohort.
As pharmacokinetic and safety data emerged from prior cohorts, doses evaluated in Cohorts 3a-4a were adjusted by increments no more than 100 mg.
Healthy volunteers in the Part A portion of the study were male and female subjects between the ages of 18 and 65. Active and placebo recipients were pooled within each Part A cohort to preserve the study blind.
Pharmacokinetic of Compound 1 and nucleoside metabolite 1-7 were measured following the single dose of Compound 2. […] Values are reported as mean±SD, except or Tmax where median (range) is reported.

[2] = Heart and liver tissue levels of active triphosphate 4 hours after oral Compound 2, dogs; format: in vivo, dog; conditions: 4 hours after oral dose of Compound 2
Protocol: (§1) High levels of the active TP were measured in the liver of all species tested.

[3] = Stability under refrigerator conditions (5 ± 3° C.) of Compound 2; format: physicochemical
Protocol: (§2) Three conditions were tested: accelerated stability (40 2° C./75±5% RH) over a 6-month time period, ambient stability (25±2° C./60±5% RH) over a 9-month period, and stability under refrigerator conditions (5 3° C.) over a 9-month time period. The results for accelerated stability, ambient stability, and refrigerator conditions are shown in Table 23, Table 24, and Table 25, respectively.
The only impurities detected even after 9 months were those from related substance 1 and water.

[4] = Head-to-head comparison of plasma levels in dogs dosed with Compound 1 and Compound 2; format: in vivo, dog; conditions: dosed Compound 1 25 mg/kg or Compound 2 30 mg/kg, normalized to a dose of 25 mg/kg
Protocol: A head-to-head comparison of dogs dosed with Compound 1 and Compound 2 was conducted.

[5] = Storage of Compound 1 forms and amorphous salts at 25° C./60% RH for 14 days (HPLC, XRPD, observation)
Protocol: This initial characterization was followed by storage at 25° C./60% relative humidity (RH) for 14 days with analysis by […] and XRPD after 7 and 14 days. FIG. 4A is the XRPD after 14 days at 25° C./60% (RH).
The samples were then frozen with the solvent removed by lyophilization.
The samples were then subjected to storage at 25° C./60% relative humidity (RH) for 14 days with analysis by HPLC and XRPD after 7 (FIG. 4B) and 14 days (FIG. 5A).

[6] = Heart and liver tissue levels of active triphosphate 4 hours after oral Compound 2, monkeys; format: in vivo, monkey; conditions: 4 hours after oral dose of Compound 2
Protocol: as §1

[7] = Plasma levels of metabolites following single oral dose of Compound 2, rats; format: in vivo, rat; conditions: single oral dose of Compound 2
[8] = Plasma levels of metabolites following single oral doses of Compound 2, dogs; format: in vivo, dog; conditions: for AUC(0-t) / Cmax / Tmax: dog, plasma, po
[9] = Plasma levels of metabolites following single oral doses of Compound 2, monkeys; format: in vivo, monkey; conditions: for AUC(0-t) / Cmax / Tmax: monkey, plasma, po
[10] = Accelerated stability (40 ± 2° C./75 ± 5% RH) of Compound 2; format: physicochemical
Protocol: as §2
After six months, the total related substance 1 impurities was only 0.08% and there was no detection of related substance 2 and isomers.

[11] = Heart and liver tissue levels of active triphosphate 4 hours after oral Compound 2, rats; format: in vivo, rat; conditions: 4 hours after oral dose of Compound 2
Protocol: as §1

For `CNc1nc(N)nc2c1ncn2[C@@H]1O[C@H](CO[P@@](=O)(N[C@@H](C)C(=O)OC(C)C)Oc2ccccc2)[C@@H](O)[C@@]1(C)F` [Compound 2, hemi-sulfate salt of isopropyl((S)-(((2R,3R,4R,5R)-5-(2-amino-6-(methylamino)-9H-purin-9-yl)-4-fluoro-3-hydroxy-4-methyltetrahydrofuran-2-yl)methoxy)(phenoxy)phosphoryl)-L-alaninate], the “Intensity of adverse effects” value ([1]; Part A) was “mild to moderate”, the Serious adverse events ([1]; Part A) was “No serious adverse events” and the “Tolerability” value ([1]; single oral dose) was “well tolerated”. The “Active TP (metabolite 1-6) level in heart” value (shortened to “Active TP … in heart”) [2] was “Relatively low levels”, the “Active TP (metabolite 1-6) level in liver” value (“Active TP … in liver” below) [2] was “High levels” and the “Total impurities of related substance 1” value ([3]; 5° C., after 9 months) was 0.01%. For the same compound, the Water content ([3]; 5° C., after 9 months) was 0.32%, the Appearance ([3]; 5 ± 3° C., 0 month) was “White” and the Assay ([3]; 5 ± 3° C., 0 month) was 98.8%. The IR ([3]; 5 ± 3° C., 0 month) was “correspond”, the “Related Substance 1 Any other single impurity” value ([3]; 5 ± 3° C., 0 month) was 0.01% and the “Related Substance 1 Total Impurities” value ([3]; 5 ± 3° C., 0 month) was 0.01%. For the same compound, the Water ([3]; 5 ± 3° C., 0 month) was 0.45%, the Appearance ([3]; 5 ± 3° C., 1st month) was “White” and the Assay ([3]; 5 ± 3° C., 1st month) was 101.1%. For the same compound, the “Related Substance 1 Any other single impurity” value ([3]; 5 ± 3° C., 1st month) was 0.01%, the “Related Substance 1 Total Impurities” value ([3]; 5 ± 3° C., 1st month) was 0.01% and the Water ([3]; 5 ± 3° C., 1st month) was 0.19%. The Appearance ([3]; 5 ± 3° C., 3rd month) was “White”, the Assay ([3]; 5 ± 3° C., 3rd month) was 100.2% and the IR ([3]; 5 ± 3° C., 3rd month) was “correspond”. For the same compound, the “Related Substance 1 Any other single impurity” value ([3]; 5 ± 3° C., 3rd month) was 0.01%, the “Related Substance 1 Impurity B” value ([3]; 5 ± 3° C., 3rd month) was 0.01% and the “Related Substance 1 Total Impurities” value ([3]; 5 ± 3° C., 3rd month) was 0.03%. For the same compound, the Water ([3]; 5 ± 3° C., 3rd month) was 0.32%, the Appearance ([3]; 5 ± 3° C., 6th month) was “White” and the Assay ([3]; 5 ± 3° C., 6th month) was 98.6%. The IR ([3]; 5 ± 3° C., 6th month) was “correspond”, the “Related Substance 1 Any other single impurity” value ([3]; 5 ± 3° C., 6th month) was 0.01% and the “Related Substance 1 Total Impurities” value ([3]; 5 ± 3° C., 6th month) was 0.03%. The Water ([3]; 5 ± 3° C., 6th month) was 0.42%, the Appearance ([3]; 5 ± 3° C., 9th month) was “Off-white” and the Assay ([3]; 5 ± 3° C., 9th month) was 101.4%. The IR ([3]; 5 ± 3° C., 9th month) was “correspond”, the “Related Substance 1 Any other single impurity” value ([3]; 5 ± 3° C., 9th month) was 0.01% and the “Related Substance 1 Total Impurities” value ([3]; 5 ± 3° C., 9th month) was 0.01%. For the same compound, the Water ([3]; 5 ± 3° C., 9th month) was 0.32%, the “Stability” value ([3]; refrigerator conditions (5° C.), 9 months) was “very chemically stable; also recorded: stable” and the “Mean Dose-normalized AUC(0-4hr) for Compound 1” value [4] was 1.0 µM·h. The “Hygroscopicity” value [5] was “not hydroscopic; also recorded: non-hygroscopic”, the “Physical/chemical stability and appearance on storage” value ([5]; 25° C./60% RH, 14 days) was “stable white solid” and the “Active TP … in heart” value [6] was “unquantifiable levels”. For the same compound, the “Active TP … in liver” value [6] was “High levels”, the “Compound 1 exposure” value [7] was “low levels” and the “Metabolite 1-7 levels” value [7] was “high levels”. The AUC(0-t) ([8]; 30 mg/kg) was 1300 ng·h/mL, the AUC(0-t) ([8]; 100 mg/kg) was 10200 ng·h/mL and the Cmax ([8]; 100 mg/kg) was 8120 ng/mL. For the same compound, the Tmax ([8]; 100 mg/kg) was 0.5 to 1 h, the AUC(0-t) ([8]; 300 mg/kg) was 44300 ng·h/mL and the Cmax ([8]; 300 mg/kg) was 21300 ng/mL. The Tmax ([8]; 300 mg/kg) was 204 h, the “Vomiting (animals affected)” value ([8]; dogs, high dose group) was 5/5 and the “Dose proportionality of Compound 1 exposures” value ([8]; dogs, single oral doses of Compound 2) was “supra-proportional”. It also gave an AUC(0-t) ([9]; 30 mg/kg) of 176 ng·h/mL, a Cmax ([9]; 30 mg/kg) of 63.5 ng/mL and a Tmax ([9]; 30 mg/kg) of 0.5 to 2 h. For the same compound, the AUC(0-t) ([9]; 100 mg/kg) was 1100 ng·h/mL, the Cmax ([9]; 100 mg/kg) was 783 ng/mL and the Tmax ([9]; 100 mg/kg) was 1 to 2 h. The AUC(0-t) ([9]; 300 mg/kg) was 1600 ng·h/mL, the Cmax ([9]; 300 mg/kg) was 501 ng/mL and the Tmax ([9]; 300 mg/kg) was 204 h. For the same compound, the “Vomiting (animals affected)” value ([9]; monkeys, high dose group) was 1/5, the “Dose proportionality of Compound 1 exposures” value ([9]; monkeys, single oral doses of Compound 2) was “roughly dose-proportional” and the Appearance ([10]; 40° C./75% RH, 0 month) was “White”. The Assay ([10]; 40° C./75% RH, 0 month) was 98.8%, the IR ([10]; 40° C./75% RH, 0 month) was “correspond” and the “Related Substance 1: Any other single impurity” value ([10]; 40° C./75% RH, 0 month) was 0.01%. For the same compound, the “Related Substance 1: Total Impurities” value ([10]; 40° C./75% RH, 0 month) was 0.01%, the Water ([10]; 40° C./75% RH, 0 month) was 0.45% and the Appearance ([10]; 40° C./75% RH, 1st month) was “White”. The Assay ([10]; 40° C./75% RH, 1st month) was 101.5%, the “Related Substance 1: Any other single impurity” value ([10]; 40° C./75% RH, 1st month) was 0.02% and the “Related Substance 1: Total Impurities” value ([10]; 40° C./75% RH, 1st month) was 0.02%. The Water ([10]; 40° C./75% RH, 1st month) was 0.21%, the Appearance ([10]; 40° C./75% RH, 3rd month) was “White” and the Assay ([10]; 40° C./75% RH, 3rd month) was 99.6%. For the same compound, the IR ([10]; 40° C./75% RH, 3rd month) was “correspond”, the “Related Substance 1: Any other single impurity” value ([10]; 40° C./75% RH, 3rd month) was 0.01% and the “Related Substance 1: Total Impurities” value ([10]; 40° C./75% RH, 3rd month) was 0.02%. The Water ([10]; 40° C./75% RH, 3rd month) was 0.36%, the Appearance ([10]; 40° C./75% RH, 6th month) was “White” and the Assay ([10]; 40° C./75% RH, 6th month) was 99.5%. For the same compound, the IR ([10]; 40° C./75% RH, 6th month) was “correspond”, the “Related Substance 1: Any other single impurity” value ([10]; 40° C./75% RH, 6th month) was 0.05% and the “Related Substance 1: Impurity F” value ([10]; 40° C./75% RH, 6th month) was 0.01%. The “Related Substance 1: Total Impurities” value ([10]; 40° C./75% RH, 6th month) was 0.08%, the Water ([10]; 40° C./75% RH, 6th month) was 0.41% and the “Stability” value ([10]; accelerated stability conditions (40° C./75% RH), 6 months) was “remains a white solid”. The “Active TP … in heart” value [11] was “unquantifiable levels” and the “Active TP … in liver” value [11] was “High levels”.
